Laboratory results taken from ChEMBL document CHEMBL1201862, “PubChem BioAssay data set” (2004).
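Cultured in 96-well plates, cells were exposed to test compound for 48 hours across five concentrations. At the GI50, growth is halved.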 Calls of active or inactive are those of the source. No stated cut-off is given here; in the data, active = GI50 up to about 1.1 µM and inactive = higher.

Key:
Assay in all cases: NCI-60 cell line screen, 48 h
[1] = system: HCT-15
[2] = system: NCI/ADR-RES
[3] = system: ACHN
[4] = system: IGROV-1
[5] = system: SR
[6] = system: MDA-MB-435
[7] = system: UACC-62
[8] = system: SNB-19
[9] = system: Hs-578T
[10] = system: SNB-75
[11] = system: MCF7
[12] = system: SF-268
[13] = system: T47D
[14] = system: HOP-62
[15] = system: MDA-MB-231
[16] = system: NCI-H460
[17] = system: EKVX
[18] = system: RPMI-8226
[19] = system: HOP-92
[20] = system: OVCAR-4

| SMILES | GI50 [1] | GI50 [2] | GI50 [3] | GI50 [4] | GI50 [5] | GI50 [6] | GI50 [7] | GI50 [8] | GI50 [9] | GI50 [10] | GI50 [11] | GI50 [12] | GI50 [13] | GI50 [14] | GI50 [15] | GI50 [16] | GI50 [17] | GI50 [18] | GI50 [19] | GI50 [20] |
| --- | --- | --- | --- | --- | --- | --- | --- | --- | --- | --- | --- | --- | --- | --- | --- | --- | --- | --- | --- | --- |
| CC(NC(=O)C(CC(=O)OCc1ccccc1)NC(=O)OCc1ccccc1)c1ccccc1 (stereo unspecified) | > 100 µM | > 100 µM (inactive) | 67.5 µM (inactive) | > 100 µM (inactive) | > 100 µM (inactive) | > 100 µM (inactive) | 37.8 µM (inactive) | 48 µM (inactive) | > 100 µM (inactive) | > 100 µM (inactive) | > 100 µM (inactive) | > 100 µM (inactive) | > 100 µM (inactive) | 49.2 µM (inactive) | 79.3 µM (inactive) | > 100 µM (inactive) | > 100 µM (inactive) | > 100 µM (inactive) |  |  |
| CCc1c[n+]([O-])c(C)cc1[N+](=O)[O-] | 18.8 µM | > 100 µM (inactive) | 17.7 µM (inactive) | > 100 µM (inactive) | 33.6 µM (inactive) | 57.9 µM (inactive) | 49.9 µM (inactive) | > 100 µM (inactive) | > 100 µM (inactive) | 78.3 µM (inactive) | 90.8 µM (inactive) | > 100 µM (inactive) | > 100 µM (inactive) | > 100 µM (inactive) | 22.8 µM (inactive) | 20.7 µM (inactive) | 29.6 µM (inactive) | 33.5 µM (inactive) | 35.8 µM (inactive) |  |
| OC(C#Cc1ccccc1)(c1ccccc1)c1ccccc1 | 39.5 µM | 36.6 µM (inactive) | 39 µM (inactive) | 43.7 µM (inactive) | 37.4 µM (inactive) | 24.3 µM (inactive) | 35.4 µM (inactive) | 70.6 µM (inactive) | 54.8 µM (inactive) | 55.3 µM (inactive) | 24 µM (inactive) | 21.4 µM (inactive) | 18.9 µM (inactive) | > 100 µM (inactive) | 51.8 µM (inactive) | 20.9 µM (inactive) | 23.8 µM (inactive) | 16.4 µM (inactive) |  | 41.8 µM (inactive) |
| O=C1CSC(c2cccc(Cl)c2)N1c1ccc(-n2c(-c3ccccc3)nc3ccccc3c2=O)cc1 (stereo unspecified) | 15.8 µM | 25.5 µM (inactive) | 79.3 µM (inactive) | 59.2 µM (inactive) | 7.66 µM (inactive) | 45.8 µM (inactive) | 21.4 µM (inactive) | > 100 µM (inactive) | 39.3 µM (inactive) |  | 30.3 µM (inactive) | 8.07 µM (inactive) | 10 µM (inactive) | > 100 µM (inactive) | 21.1 µM (inactive) | 39.1 µM (inactive) | > 100 µM (inactive) | 52.4 µM (inactive) | 2.69 µM (inactive) | 18.7 µM (inactive) |
| NC1=NCCN1CC(=O)O [CYCLOCREATINE] | > 1000 µM | > 1000 µM (inactive) | > 1000 µM (inactive) | > 1000 µM (inactive) | > 1000 µM (inactive) | > 1000 µM (inactive) | > 1000 µM (inactive) | > 1000 µM (inactive) | 4040 µM (inactive) |  | > 1000 µM (inactive) | 4990 µM (inactive) | > 1000 µM (inactive) | > 1000 µM (inactive) | > 1000 µM (inactive) | > 1000 µM (inactive) | > 10000 µM (inactive) | > 1000 µM (inactive) | > 1000 µM (inactive) | > 1000 µM (inactive) |
| CN(CCNC(=O)c1cn(C)c2c1ccc1cc(Cl)ccc12)CCNC(=O)c1cn(C)c2c1ccc1cc(Cl)ccc12 | 1.78 µM | 2.05 µM (inactive) | 5.25 µM (inactive) | 3.57 µM (inactive) | 5.11 µM (inactive) | 1.44 µM (inactive) | 5.97 µM (inactive) | 1.83 µM (inactive) | 1.94 µM (inactive) | 1.68 µM (inactive) | 1.86 µM (inactive) | 1.77 µM (inactive) | 2.13 µM (inactive) | 1.79 µM (inactive) | 6.62 µM (inactive) | 3.24 µM (inactive) | 1.94 µM (inactive) |  | 5.85 µM (inactive) | 1.66 µM (inactive) |
| CCCCC/C=C1\CC(CO)(COC(=O)CC(C(C)C)C(C)C)OC1=O (stereo unspecified) | 19.9 µM | 20.3 µM (inactive) | 13 µM (inactive) | 17.4 µM (inactive) | 28.6 µM (inactive) | 8.59 µM (inactive) | 19.4 µM (inactive) | 15 µM (inactive) | 4.62 µM (inactive) | 12.1 µM (inactive) | 21.6 µM (inactive) | 17.9 µM (inactive) | 23.1 µM (inactive) | 6 µM (inactive) | 17.9 µM (inactive) | 16.4 µM (inactive) | 13.7 µM (inactive) |  | 3.66 µM (inactive) | 30 µM (inactive) |
| CC1=C/C(=N\OCC(=O)O)CC(c2ccc(C(C)C)cc2)C1 (stereo unspecified) | 23.2 µM | 21.1 µM (inactive) |  | > 100 µM (inactive) | 28.1 µM (inactive) | 36.8 µM (inactive) | 33.7 µM (inactive) |  | > 100 µM (inactive) |  | 52.5 µM (inactive) |  | 65.3 µM (inactive) |  | 54.8 µM (inactive) | 42.2 µM (inactive) | > 100 µM (inactive) | 23.2 µM (inactive) | 29.5 µM (inactive) |  |
| N#CC(C#N)=C1c2ccccc2C(=NN)c2ccccc21 | > 100 µM | > 100 µM (inactive) | 12.3 µM (inactive) | > 100 µM (inactive) | > 100 µM (inactive) | > 100 µM (inactive) | > 43.5 µM (inactive) | > 100 µM (inactive) | 9.57 µM (inactive) | > 43.9 µM (inactive) | > 100 µM (inactive) | > 61.4 µM (inactive) | 0.508 µM (active) | 10.6 µM (inactive) | > 79.8 µM (inactive) |  |  | > 100 µM (inactive) | > 100 µM (inactive) |  |
| C/C=C/[C@H]1O[C@@](O)([C@@H](C)[C@H](O)[C@H](C)[C@H]2OC(=O)/C(OC)=C/C(C)=C/[C@@H](C)[C@@H](O)[C@@H](CC)[C@@H](O)[C@H](C)C/C(C)=C/C=C/[C@@H]2OC)C[C@H](OC2CC(O)C(OC(N)=O)C(C)O2)[C@@H]1C (stereo partly specified) | 0.0426 µM | 0.759 µM (active) | 0.0286 µM (active) | 0.0458 µM (active) | < 0.01 µM (active) | 0.0275 µM (active) | 0.0231 µM (active) | 8.22 µM (inactive) | 12.4 µM (inactive) | 0.525 µM (active) | 0.0293 µM (active) | 0.0447 µM (active) | 0.0333 µM (active) | < 0.0249 µM (active) | 0.678 µM (active) | < 0.0111 µM (active) | 0.0719 µM (active) | < 0.0157 µM (active) |  | 0.0791 µM (active) |
| CCCCCCCCCCCCCCCCS(=O)(=O)c1ccc(NN)cc1 | > 10 µM | > 10 µM (inactive) | > 10 µM (inactive) | > 10 µM (inactive) | 2.77 µM (inactive) | > 10 µM (inactive) | > 10 µM (inactive) | > 10 µM (inactive) | 7.96 µM (inactive) |  | > 10 µM (inactive) | 9.38 µM (inactive) | > 10 µM (inactive) | > 10 µM (inactive) | > 10 µM (inactive) | > 10 µM (inactive) | > 10 µM (inactive) | 5.33 µM (inactive) | 7.1 µM (inactive) | 8.17 µM (inactive) |
| Oc1ccc(SCc2ccc(NCc3ccccc3)cc2)cc1 | 8.97 µM | 30.3 µM (inactive) | 24 µM (inactive) | 45.5 µM (inactive) | 13.1 µM (inactive) | 18.2 µM (inactive) | 23.4 µM (inactive) | 23.9 µM (inactive) | 53 µM (inactive) | 21.6 µM (inactive) | 29.8 µM (inactive) | 39.4 µM (inactive) | 14.7 µM (inactive) | 46.6 µM (inactive) | 39.9 µM (inactive) | 31 µM (inactive) | 19.4 µM (inactive) |  | 43.4 µM (inactive) | 18.1 µM (inactive) |
| Cc1c(/C=N/NC(=S)Nc2ccc(Cl)cc2)c(=O)n(-c2ccccc2)n1C | 17.9 µM | 17.3 µM (inactive) | 16.1 µM (inactive) | 16 µM (inactive) | 4.93 µM (inactive) | > 100 µM (inactive) | > 48.5 µM (inactive) | 27.9 µM (inactive) | 18.3 µM (inactive) | 15.9 µM (inactive) | 19.8 µM (inactive) | 15.8 µM (inactive) | 46.6 µM (inactive) | 14.3 µM (inactive) | 0.637 µM (active) | 25.4 µM (inactive) | 22.6 µM (inactive) | 39.1 µM (inactive) |  | 24.5 µM (inactive) |
| Cc1ccc(/N=N/C(=NNC(=O)c2ccc(C)cc2)c2ccc(N(C)C)cc2)cc1 | 28.7 µM | 41.3 µM (inactive) | 66.4 µM (inactive) | 29.3 µM (inactive) | 17.9 µM (inactive) | 16.6 µM (inactive) | 10.8 µM (inactive) | 24.8 µM (inactive) | 28.1 µM (inactive) |  | 20 µM (inactive) | 38.5 µM (inactive) | 71.3 µM (inactive) |  | 50.2 µM (inactive) | 25.3 µM (inactive) | 30.1 µM (inactive) | 22.3 µM (inactive) | 28.6 µM (inactive) | 18.5 µM (inactive) |
| COc1cc2c3cc1Oc1c(OC)c(OC)cc4c1C(Cc1ccc(O)c(c1)Oc1ccc(cc1)CC3N(C)CC2)N(C)CC4 (stereo unspecified) | 16.1 µM | 31.5 µM (inactive) | 17.3 µM (inactive) | 39.8 µM (inactive) | 2.09 µM (inactive) | > 10 µM (inactive) | 44.6 µM (inactive) | 20.2 µM (inactive) | 24.2 µM (inactive) | 23.3 µM (inactive) | 45.9 µM (inactive) | 24.3 µM (inactive) | 27.8 µM (inactive) | 64.6 µM (inactive) | 35.6 µM (inactive) | 15.7 µM (inactive) | 27.9 µM (inactive) |  | 26.2 µM (inactive) | 29 µM (inactive) |
